From patent US6191118A (Taisho Pharmaceutical Co., Ltd., priority 1996, dated 2001)
In brackets after ≈: the same amount, converted by molar mass.

Key:
Type in all cases: cell-based
S. aureus B1 = experiment: In vitro antibacterial activity (MIC), S. aureus B1; details: Staphylococcus aureus, sensitive disc media, Japan Society of Chemotherapy method, read-out: MIC (Minimum Inhibitory Concentration)
Procedure: (§1) The in vitro antibacterial activity of the compound obtained in Example 4 as an example of the compound of the present invention against various experimental bacteria was measured using sensitive disc media (produced by Eiken Chemical Co.) according to the MIC measuring method specified by the Japan Society of Chemotherapy. Clarithromycin was used as a comparative drug.

[1] = tested on: erythromycin-sensitive bacteria; experiment: Antibacterial activity against erythromycin-sensitive bacteria (in words)
Procedure: as §1

[2] = tested on: erythromycin-resistant bacteria; experiment: Antibacterial activity against erythromycin-resistant bacteria (in words)
Procedure: as §1

S. pneumoniae IID 553 = experiment: In vitro antibacterial activity (MIC), S. pneumoniae IID 553; details: Streptococcus pneumoniae, IID553, sensitive disc media, Japan Society of Chemotherapy method, read-out: MIC (Minimum Inhibitory Concentration)
Procedure: as §1

S. aureus J-109 = experiment: In vitro antibacterial activity (MIC), S. aureus J-109; details: Staphylococcus aureus, J109, sensitive disc media, Japan Society of Chemotherapy method, read-out: MIC (Minimum Inhibitory Concentration)
Procedure: as §1

S. pneumoniae BM 205 = experiment: In vitro antibacterial activity (MIC), S. pneumoniae BM 205; details: Streptococcus pneumoniae, BM205, sensitive disc media, Japan Society of Chemotherapy method, read-out: MIC (Minimum Inhibitory Concentration)
Procedure: as §1

S. aureus Smith = experiment: In vitro antibacterial activity (MIC), S. aureus Smith; details: Staphylococcus aureus, sensitive disc media, Japan Society of Chemotherapy method, read-out: MIC (Minimum Inhibitory Concentration)
Procedure: as §1

S. aureus 209P-JC = experiment: In vitro antibacterial activity (MIC), S. aureus 209P-JC; details: Staphylococcus aureus, sensitive disc media, Japan Society of Chemotherapy method, read-out: MIC (Minimum Inhibitory Concentration)
Procedure: as §1

S. pneumoniae BM 210 = experiment: In vitro antibacterial activity (MIC), S. pneumoniae BM 210; details: Streptococcus pneumoniae, BM210, sensitive disc media, Japan Society of Chemotherapy method, read-out: MIC (Minimum Inhibitory Concentration)
Procedure: as §1

SMILES | MIC (S. aureus B1) | antibacterial activity [1] | antibacterial activity [2] | MIC (S. pneumoniae IID 553) | MIC (S. aureus J-109) | MIC (S. pneumoniae BM 205) | MIC (S. aureus Smith) | MIC (S. aureus 209P-JC) | MIC (S. pneumoniae BM 210)
CC[C@H]1OC(=O)[C@H](C)[C@@H](OC(=O)Cc2ccccn2)[C@H](C)[C@@H](O[C@@H]2O[C@H](C)C[C@H](N(C)C)[C@H]2O)[C@](C)(OC)C[C@@H](C)C(=O)[C@H](C)[C@H]2N(CCN(C)Cc3cccnc3)C(=O)O[C@]12C [Example 4, 11-{2-[N-methyl-N-(3-pyridylmethyl)amino]ethyl}amino-11-deoxy-3-O-(2-pyridyl)acetyl-5-O-desosaminyl-6-O-methylerythronolide A 11,12-cyclic carbamate] | 0.39 µg/mL (≈ 0.442 µM) | strong antibacterial activity | strong antibacterial activity | 0.1 µg/mL (≈ 0.113 µM) | > 100 µg/mL | 0.39 µg/mL (≈ 0.442 µM) | 0.2 µg/mL (≈ 0.227 µM) | 0.1 µg/mL (≈ 0.113 µM) | 0.39 µg/mL (≈ 0.442 µM)
CC[C@H]1OC(=O)[C@H](C)[C@@H](O[C@H]2C[C@@](C)(OC)[C@@H](O)[C@H](C)O2)[C@H](C)[C@@H](O[C@@H]2O[C@H](C)C[C@H](N(C)C)[C@H]2O)[C@](C)(OC)C[C@@H](C)C(=O)[C@H](C)[C@@H](O)[C@]1(C)O [Comparative drug, Clarithromycin, reference compound] | > 100 µg/mL |  |  | 0.1 µg/mL (≈ 0.134 µM) | > 100 µg/mL | > 100 µg/mL |  |  | 1.56 µg/mL (≈ 2.09 µM)
